Reference: PMC9403976, “Elucidating the path to Plasmodium prolyl-tRNA synthetase inhibitors that overcome halofuginone resistance” (Nature Communications, 2022)
Several values for one entry are separate records, joined by “and”; a condition that tells them apart may be missing. Equal entries are not always repeated. Where two headings read alike, the source gives them in different places.

What was measured:
PfcProRS = target: T1, PfcProRS (Plasmodium falciparum, UniProt Q8I5R7); assay type: binding; details: for Normalized response, dose-response replicates (SI Fig 14): replicates 1-3; for dose-response signal (normalized), SI Fig 8: single replicates
T1 construct: made in house; host or cells: E. coli SoluBL-21

[1] = test system: HFGR-I P. falciparum (elevated proline homeostasis and PfcProRS^L482H); test: P. falciparum ABS growth assay, SYBR Green, 72 h, HFGR-I parasites; assay type: cell-based, Plasmodium falciparum; details: Log[inhibitor] (M) -8.699
Description: (§1) Parasites were maintained under standard culture conditions as described previously[56],[57]. […] The P. falciparum Dd2 cell lines used in this study (Dd2-2D4, halofuginone-induced, and HFGR-I) have previously undergone whole genome sequencing in our labs. They were also routinely assayed and EC50 values determined using the ABS growth assay (see below) with a panel of standard antimalarial compounds, including halofuginone which has differential activity for the three Dd2 lines used in these experiments. Data were cross-referenced for consistency with literature reported values and data previously acquired in the lab.
(§2) This assay was performed as previously described. In short, P. falciparum erythrocytic-stage parasites at 1% parasitemia and 1% hematocrit in RPMI + 0.5% Albumax were seeded at 40 μL/well in 384-well plates with test compounds in triplicate, dose-response format with 10 μM dihydroartemisinin as a kill-control and blank (no compound) wells as a growth-control. […] After 72 h, growth was quantified by measuring fluorescence (Molecular Devices SpectraMax iD5) following SYBR Green 1 staining. Data were analyzed in Excel and plotted in PRISM (V. 8.4.3–9.1.0, GraphPad).

HsProRS = HsProRS (Homo sapiens, UniProt P07814); test: TR-FRET ligand displacement assay with tracer MAT379 (CoraFluor-1-Halo and anti-His6 antibody formats); assay type: binding; set-up: made in house; host or cells: E. coli SoluBL-21; details: for TR-FRET dose-response, normalized signal (SI Fig 11): individual replicates
P. falciparum Dd2-2D4 = test: P. falciparum asexual blood stage (ABS) growth assay, SYBR Green, 72 h, wild-type parasites; assay type: cell-based, Plasmodium falciparum; details: for EC50: Plasmodium falciparum, DD2, SI Fig 16b, values on -log scale, read-out: ABS - Dd2-2D4 (converted); for ABS growth dose-response, normalized signal (Replicates 1-3): Dd2-2D4
[2] = test system: halofuginone-induced P. falciparum (elevated proline homeostasis); test: P. falciparum ABS growth assay, SYBR Green, 72 h, halofuginone-induced parasites; assay type: cell-based, Plasmodium falciparum
Description: as §1, §2

[3] = HsProRS (KD [nM]) mean, no added proline/ATP (-)

T1 sequence (Q8I5R7 249-746): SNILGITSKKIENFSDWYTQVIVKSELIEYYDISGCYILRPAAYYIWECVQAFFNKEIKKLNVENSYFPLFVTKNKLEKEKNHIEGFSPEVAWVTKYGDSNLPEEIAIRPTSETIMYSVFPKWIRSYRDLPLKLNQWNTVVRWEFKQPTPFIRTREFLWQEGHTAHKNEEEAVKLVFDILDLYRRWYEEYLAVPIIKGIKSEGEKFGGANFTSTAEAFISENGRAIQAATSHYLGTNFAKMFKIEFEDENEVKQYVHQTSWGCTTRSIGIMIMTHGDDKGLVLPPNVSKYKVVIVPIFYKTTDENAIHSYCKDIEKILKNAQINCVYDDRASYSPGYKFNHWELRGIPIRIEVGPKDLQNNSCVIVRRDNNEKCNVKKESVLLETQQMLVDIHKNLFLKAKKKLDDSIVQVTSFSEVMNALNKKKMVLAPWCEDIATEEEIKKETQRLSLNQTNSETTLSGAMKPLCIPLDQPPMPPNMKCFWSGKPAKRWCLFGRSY
Chain of HsProRS (P07814 996-1512): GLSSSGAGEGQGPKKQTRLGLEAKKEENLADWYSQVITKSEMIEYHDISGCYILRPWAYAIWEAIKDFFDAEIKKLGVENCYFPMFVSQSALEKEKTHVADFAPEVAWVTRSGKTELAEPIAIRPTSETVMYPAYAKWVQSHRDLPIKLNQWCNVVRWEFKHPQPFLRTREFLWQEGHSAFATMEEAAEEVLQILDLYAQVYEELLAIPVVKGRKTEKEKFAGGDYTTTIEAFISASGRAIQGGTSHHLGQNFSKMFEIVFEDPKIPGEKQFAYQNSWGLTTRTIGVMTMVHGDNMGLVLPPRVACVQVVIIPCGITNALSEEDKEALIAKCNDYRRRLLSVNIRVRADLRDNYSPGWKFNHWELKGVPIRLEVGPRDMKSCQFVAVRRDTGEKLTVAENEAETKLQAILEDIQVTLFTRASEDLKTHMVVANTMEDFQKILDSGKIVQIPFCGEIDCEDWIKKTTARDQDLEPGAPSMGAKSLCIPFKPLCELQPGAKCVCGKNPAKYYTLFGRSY

## NCCCCCC(=O)NC1CCN(C(=O)Nc2nccnc2C(=O)NC2Cc3ccccc3C2)CC1 [compound 42]
PfcProRS; Log[inhibitor] (M) -5.000
  Normalized response, dose-response replicates (SI Fig 14): 2.49E-01 and 1.76E-01 and 2.08E-01
PfcProRS; Log[inhibitor] (M) -5.301
  Normalized response, dose-response replicates (SI Fig 14): 3.00E-01 and 2.27E-01 and 1.95E-01
PfcProRS; Log[inhibitor] (M) -5.601
  Normalized response, dose-response replicates (SI Fig 14): 3.22E-01 and 3.31E-01 and 4.26E-01
PfcProRS; Log[inhibitor] (M) -5.904
  Normalized response, dose-response replicates (SI Fig 14): 5.98E-01 and 5.09E-01 and 6.07E-01
PfcProRS; Log[inhibitor] (M) -6.208
  Normalized response, dose-response replicates (SI Fig 14): 6.69E-01 and 7.19E-01 and 7.06E-01
PfcProRS; Log[inhibitor] (M) -6.509
  Normalized response, dose-response replicates (SI Fig 14): 8.50E-01 and 8.42E-01 and 7.76E-01
PfcProRS; Log[inhibitor] (M) -6.796
  Normalized response, dose-response replicates (SI Fig 14): 8.57E-01 and 7.95E-01 and 8.50E-01
PfcProRS; Log[inhibitor] (M) -7.108
  Normalized response, dose-response replicates (SI Fig 14): 9.38E-01 and 9.24E-01 and 9.33E-01
PfcProRS; Log[inhibitor] (M) -7.409
  Normalized response, dose-response replicates (SI Fig 14): 8.48E-01 and 9.09E-01 and 8.32E-01
PfcProRS; Log[inhibitor] (M) -7.710
  Normalized response, dose-response replicates (SI Fig 14): 1.01E+00 and 1.02E+00 and 9.56E-01
PfcProRS; Log[inhibitor] (M) -8.000
  Normalized response, dose-response replicates (SI Fig 14): 9.91E-01 and 1.13E+00 and 9.71E-01
PfcProRS; Log[inhibitor] (M) -8.301
  Normalized response, dose-response replicates (SI Fig 14): 9.70E-01 and 1.02E+00 and 1.00E+00
PfcProRS; Log[inhibitor] (M) -8.602
  Normalized response, dose-response replicates (SI Fig 14): 1.01E+00 and 9.47E-01 and 9.02E-01
PfcProRS; Log[inhibitor] (M) -9.000
  Normalized response, dose-response replicates (SI Fig 14): 1.03E+00 and 8.54E-01 and 9.74E-01
PfcProRS; Log[inhibitor] (M) -9.301
  Normalized response, dose-response replicates (SI Fig 14): 1.02E+00 and 9.76E-01 and 9.47E-01
PfcProRS; SI Fig 16a, values on -log scale
  PfcProRS -- best Kd: 6.530
[1]
  dose-response value, Replicates 1-3 (SI Fig 2f): 97
HsProRS; HsProRS (KD [nM]) + 100 μM proline mean, + 100 μM proline
  Kd: 780 nM
HsProRS; [3]
  Kd: 674 nM
P. falciparum Dd2-2D4
  EC50: 3120 nM

## O=C(NC1Cc2ccccc2C1)c1nccnc1NC(=O)C1CCC1 [compound 20]
PfcProRS; Log[inhibitor] (M) -5.000
  dose-response signal (normalized), SI Fig 8: -3.34E-02 and -2.16E-02 and 4.43E-02
PfcProRS; Log[inhibitor] (M) -5.301
  dose-response signal (normalized), SI Fig 8: 9.72E-02 and 2.14E-03 and 9.57E-02
PfcProRS; Log[inhibitor] (M) -5.601
  dose-response signal (normalized), SI Fig 8: 1.29E-01 and 1.68E-01 and 1.72E-01
PfcProRS; Log[inhibitor] (M) -5.904
  dose-response signal (normalized), SI Fig 8: 2.39E-01 and 2.05E-01 and 1.23E-01
PfcProRS; Log[inhibitor] (M) -6.208
  dose-response signal (normalized), SI Fig 8: 3.45E-01 and 2.90E-01 and 4.22E-01
PfcProRS; Log[inhibitor] (M) -6.509
  dose-response signal (normalized), SI Fig 8: 6.21E-01 and 6.16E-01 and 6.02E-01
PfcProRS; Log[inhibitor] (M) -6.796
  dose-response signal (normalized), SI Fig 8: 8.63E-01 and 8.36E-01 and 8.81E-01
PfcProRS; Log[inhibitor] (M) -7.108
  dose-response signal (normalized), SI Fig 8: 1.04E+00 and 9.78E-01 and 9.41E-01
PfcProRS; Log[inhibitor] (M) -7.409
  dose-response signal (normalized), SI Fig 8: 1.10E+00 and 1.00E+00 and 1.03E+00
PfcProRS; Log[inhibitor] (M) -7.710
  dose-response signal (normalized), SI Fig 8: 1.05E+00 and 1.02E+00 (2×)
PfcProRS; Log[inhibitor] (M) -8.000
  dose-response signal (normalized), SI Fig 8: 1.14E+00 and 1.06E+00 and 1.15E+00
PfcProRS; Log[inhibitor] (M) -8.301
  dose-response signal (normalized), SI Fig 8: 1.07E+00 and 1.03E+00 and 9.53E-01
PfcProRS; Log[inhibitor] (M) -8.602
  dose-response signal (normalized), SI Fig 8: 1.04E+00 and 1.07E+00 and 9.70E-01
PfcProRS; Log[inhibitor] (M) -9.000
  dose-response signal (normalized), SI Fig 8: 1.05E+00 and 1.02E+00 and 1.08E+00
PfcProRS; Log[inhibitor] (M) -9.301
  dose-response signal (normalized), SI Fig 8: 1.08E+00 and 9.05E-01 and 9.37E-01
HsProRS; [3]
  Kd: 738 nM
HsProRS; HsProRS - best Kd, SI Fig 16a, values on -log scale
  Kd: 13.2 nM
HsProRS; Log[inhibitor] (M) -5.000
  normalized TR-FRET ligand displacement signal, dose-response replicates (SI Fig 6): 1.86E-01 and 1.74E-01 and 2.39E-01
  TR-FRET dose-response, normalized signal (SI Fig 11): 1.04E-01 and 5.16E-02 and 1.08E-01
HsProRS; Log[inhibitor] (M) -5.301
  normalized TR-FRET ligand displacement signal, dose-response replicates (SI Fig 6): 4.97E-01 and 4.61E-01 and 4.31E-01
  TR-FRET dose-response, normalized signal (SI Fig 11): 1.41E-01 and 1.42E-01 and 1.77E-01
HsProRS; Log[inhibitor] (M) -5.601
  normalized TR-FRET ligand displacement signal, dose-response replicates (SI Fig 6): 6.11E-01 and 7.58E-01 and 7.79E-01
  TR-FRET dose-response, normalized signal (SI Fig 11): 3.04E-01 and 2.78E-01 and 2.50E-01
HsProRS; Log[inhibitor] (M) -5.904
  normalized TR-FRET ligand displacement signal, dose-response replicates (SI Fig 6): 8.89E-01 and 8.92E-01 and 8.45E-01
  TR-FRET dose-response, normalized signal (SI Fig 11): 4.25E-01 and 3.97E-01 and 4.79E-01
HsProRS; Log[inhibitor] (M) -6.208
  normalized TR-FRET ligand displacement signal, dose-response replicates (SI Fig 6): 9.16E-01 and 8.68E-01 and 9.52E-01
  TR-FRET dose-response, normalized signal (SI Fig 11): 6.09E-01 and 5.97E-01 and 5.95E-01
HsProRS; Log[inhibitor] (M) -6.509
  normalized TR-FRET ligand displacement signal, dose-response replicates (SI Fig 6): 1.03E+00 and 8.94E-01 and 8.53E-01
  TR-FRET dose-response, normalized signal (SI Fig 11): 6.97E-01 and 7.43E-01 and 6.91E-01
HsProRS; Log[inhibitor] (M) -6.796
  normalized TR-FRET ligand displacement signal, dose-response replicates (SI Fig 6): 1.03E+00 (2×) and 1.11E+00
  TR-FRET dose-response, normalized signal (SI Fig 11): 8.43E-01 and 8.17E-01 and 8.38E-01
HsProRS; Log[inhibitor] (M) -7.108
  normalized TR-FRET ligand displacement signal, dose-response replicates (SI Fig 6): 9.80E-01 and 1.08E+00 and 1.02E+00
  TR-FRET dose-response, normalized signal (SI Fig 11): 8.72E-01 and 8.51E-01 and 8.01E-01
HsProRS; Log[inhibitor] (M) -7.409
  normalized TR-FRET ligand displacement signal, dose-response replicates (SI Fig 6): 9.83E-01 and 1.12E+00 and 9.82E-01
  TR-FRET dose-response, normalized signal (SI Fig 11): 9.24E-01 and 8.62E-01 and 9.39E-01
HsProRS; Log[inhibitor] (M) -7.710
  normalized TR-FRET ligand displacement signal, dose-response replicates (SI Fig 6): 9.31E-01 and 9.49E-01 and 8.80E-01
  TR-FRET dose-response, normalized signal (SI Fig 11): 9.14E-01 and 9.13E-01 and 9.09E-01
HsProRS; Log[inhibitor] (M) -8.000
  normalized TR-FRET ligand displacement signal, dose-response replicates (SI Fig 6): 1.05E+00 and 9.80E-01 and 9.83E-01
  TR-FRET dose-response, normalized signal (SI Fig 11): 9.16E-01 and 9.29E-01 and 9.47E-01
HsProRS; Log[inhibitor] (M) -8.301
  normalized TR-FRET ligand displacement signal, dose-response replicates (SI Fig 6): 9.29E-01 and 1.08E+00 and 8.52E-01
  TR-FRET dose-response, normalized signal (SI Fig 11): 9.16E-01 and 9.69E-01 and 9.32E-01
HsProRS; Log[inhibitor] (M) -8.602
  normalized TR-FRET ligand displacement signal, dose-response replicates (SI Fig 6): 9.34E-01 and 1.03E+00 and 1.00E+00
  TR-FRET dose-response, normalized signal (SI Fig 11): 9.06E-01 and 9.54E-01 and 9.32E-01
HsProRS; Log[inhibitor] (M) -9.000
  normalized TR-FRET ligand displacement signal, dose-response replicates (SI Fig 6): 1.01E+00 and 9.37E-01 and 8.87E-01
  TR-FRET dose-response, normalized signal (SI Fig 11): 9.11E-01 and 9.90E-01 and 9.12E-01
HsProRS; Log[inhibitor] (M) -9.301
  normalized TR-FRET ligand displacement signal, dose-response replicates (SI Fig 6): 9.68E-01 and 9.96E-01 and 9.12E-01
  TR-FRET dose-response, normalized signal (SI Fig 11): 9.37E-01 and 9.39E-01 and 8.38E-01
P. falciparum Dd2-2D4; Log[inhibitor] (M) -5.000
  ABS growth dose-response, normalized signal (Replicates 1-3): 1
P. falciparum Dd2-2D4; Log[inhibitor] (M) -5.301
  ABS growth dose-response, normalized signal (Replicates 1-3): 7
P. falciparum Dd2-2D4
  EC50: 3740 nM
[2]; Log[inhibitor] (M) -8.699
  dose-response value, Replicates 1-3 (SI Fig 2e): 102
[2]; Log[inhibitor] (M) -9.000
  dose-response value, Replicates 1-3 (SI Fig 2e): 101
